Test results taken from patent US12662473B2, “Inhibitors for programmed cell necrosis and preparation method therefor and use thereof” (SHANGHAI INSTITUTE OF ORGANIC CHEMISTRY, CHINESE ACADEMY OF …, priority 2019, dated 2026).
Like-named read-outs stand apart in the source and are kept apart here.

Columns and labels:
[1] = tested on: FADD−/− Jurkat cells; assay: TNF-induced programmed cell necrosis inhibition, Cell Titer-Glo viability; type: cell-based; settings: Homo sapiens, Jurkat
Text: (§1) The adopted biological assay protocol was: the programmed necroptosis effect of compounds on TNF-induced in FADD (Fas-Associated Death Domain) deficient Jurkat cells and L929 cells.
(§2) In order to verify the inhibitory effect of the compounds of the present invention on programmed cell necrosis at the cellular level, cell types closely related to the RIP1 pathway, namely FADD deficient Jurkat cells (human peripheral blood leukemia T cell line) and L929 cells, were selected. Two different stimulation methods were used: tumor necrosis factor (TNFα) used alone, or TNFα used in combination with mitochondria-derived cysteine aspartate activator (SMAC). Cells viability was calculated by detecting chemiluminescence values, and the biological activity of the compound for inhibiting programmed cell necrosis can be obtained.
(§3) Methods: FADD deficient Jurkat cells: FADD deficient Jurkat cells (human peripheral blood leukemia T cell line) were cultured in vitro. After growing to the logarithmic growth phase, the cells were collected, centrifuged at 1000 rpm for 5 min, the supernatant was discarded, and the cell concentration was adjusted to 2.5×10^5/mL. Cells were seeded into 384-well plates, 40 μl per well. 5 μL of Smac (50 nM) diluted in cell culture medium and 5 μL of each compound were added to the corresponding wells. After pretreatment at 37° C. for 1 h, 5 μL of TNFα (50 ng/mL) diluted in cell culture medium was added to each well of the stimulation group, and 5 μL of the culture medium was added to the control group. The plate was cultured in a cell incubator (37° C., 5% CO2) for 14 h, and 15 μl of Cell Titer-Glo solution was added to each well, then incubated for 30 min at room temperature, and intracellular ATP level was measured by detecting luminescence. The unstimulated DMSO control wells were taken as 100% cell viability. L929 cells: The L929 cells (mouse fibroblasts) were cultured in vitro, digested and diluted to 6.25×10^4/ml, and the cells were seeded into 384-well plates, 40 μl per well. The plate was placed in a cell incubator (37° C., 5% CO2) for 12 hours. 5 μL of Smac (500 nM) diluted in cell culture medium and 5 μL of each compound were added to the corresponding wells. After pretreatment at 37° C. for 1 h, 5 μL of TNFα (500 ng/mL) diluted in cell culture medium was added to each well of the stimulation group, and 5 μL of the culture medium was added to the control group. After the plate was cultured for 14 h in a cell incubator (37° C., 5% CO2), 15 μl of Cell Titer-Glo solution was added to each well. The plate was incubated at room temperature for 30 min, and intracellular ATP level was measured by detecting luminescence. The unstimulated DMSO control wells were taken as 100% cell viability. EC50 values of the compounds were calculated using Prism Graphpad statistical software.
FADD deficient Jurkat cells: FADD deficient Jurkat cells (human peripheral blood leukemia T cell line) were cultured in vitro. After growing to the logarithmic growth phase, the cells were collected, centrifuged at 1000 rpm for 5 min, the supernatant was discarded, and the cell concentration was adjusted to 2.5×10^5/mL. Cells were seeded into 384-well plates, 40 μl per well. 5 μL of Smac (50 nM) diluted in cell culture medium and 5 μL of each compound were added to the corresponding wells. After pretreatment at 37° C. for 1 h, 5 μL of TNFα (50 ng/mL) diluted in cell culture medium was added to each well of the stimulation group, and 5 μL of the culture medium was added to the control group. After the plate was cultured in a cell incubator (37° C., 5% CO2) for 14 h, 15 μl of Cell Titer-Glo solution was added to each well. The mixture was incubated for 30 min at room temperature, and intracellular ATP level was measured by detecting luminescence. The unstimulated DMSO control wells were taken as 100% cell viability.

[2] = tested on: L929 cells; assay: as above; type: cell-based, mouse; settings: Mus musculus, read-out: EC50 inhibitory activity on programmed cell necrosis
Text: as §1, §2, §3
L929 cells: The L929 cells (mouse fibroblasts) were cultured in vitro, digested and diluted to 6.25×10^4/ml, and the cells were seeded into 384-well plates, 40 μl per well. The plate was placed in a cell incubator (37° C., 5% CO2) for 12 hours. 5 μL of Smac (500 nM) diluted in cell culture medium and 5 μL of each compound were added to the corresponding wells. After pretreatment at 37° C. for 1 h, 5 μL of TNFα (500 ng/mL) diluted in cell culture medium was added to each well of the stimulation group, and 5 μL of the culture medium was added to the control group. After the plate was cultured for 14 h in a cell incubator (37° C., 5% CO2), and 15 μl of Cell Titer-Glo solution was added to each well, then incubated at room temperature for 30 min, and intracellular ATP level was measured by detecting luminescence. The unstimulated DMSO control wells were taken as 100% cell viability.

[3] = 14 h, TNFa + SM164, read-out: EC50 inhibitory activity on programmed cell necrosis
[4] = TNFa, read-out: EC50 inhibitory activity on programmed cell necrosis
[5] = L929, 14 h, L929 cells (mouse), TNFa + SM164

SMILES	EC50 [1, 3] [µM]	EC50 [1, 4] [µM]	EC50 [2, 5] [nM]	EC50 ([2]; L929, L929 cells (mouse), TNFa) [nM]
Cc1noc([C@@H]2CCCN2C(=O)C(C)(C)Oc2ccc(Oc3ccccc3)cc2)n1 [QY-2-78]	> 10	0.127	> 10000	> 10000
Cc1noc([C@@H]2CCCN2C(=O)C(C)(C)Oc2cccc(Cl)c2)n1 [QY-2-79]	8.93	2.03	1620	212
CC(C)(Oc1ccc(Cl)cc1)C(=O)N1CCC[C@H]1c1nc(C2CC2)no1 [QY-2-100]	> 10	2.24	> 10000	2480
CCCCc1noc([C@@H]2CCCN2C(=O)C(C)(C)Oc2ccc(Cl)cc2)n1 [QY-2-103]	> 10	> 10	> 10000	> 10000
CC(C)(Oc1ccc(Cl)cc1)C(=O)N1CCC[C@H]1c1nc(Cc2ccccc2)no1 [QY-2-104]	> 10	> 10	> 10000	> 10000
Cc1noc([C@@H]2CCCN2C(=O)COc2ccc(Cl)cc2)n1 [QY-3-4]	> 10	> 10	59100	> 10000
Cc1conc1[C@@H]1CCCN1C(=O)C(C)(C)Oc1ccc(Cl)cc1 [QY-3-11]	3.27	0.389	1570	404
CC(C)c1noc([C@@H]2CCCN2C(=O)C(C)(C)Oc2ccc(Cl)cc2)n1 [QY-3-17]	> 10	3.91	52400	5380
Cc1noc([C@@H]2CCCN2C(=O)C(C)(C)Oc2ccc(Cl)c(F)c2)n1 [QY-3-26]	1.28	0.111	1240	196
Cc1noc([C@@H]2CCCN2C(=O)C(C)(C)Oc2ccc(Cl)cc2F)n1 [QY-3-27, (S)-2-(4-Chloro-2-fluorophenoxy)-2-methyl-1-(2-(3-methyl-1,2,4-oxadiazol-5-yl)pyrrolidin-1-yl)propan-1-one]	0.849	0.056	792	133
Cc1noc([C@@H]2CCCN2C(=O)C(C)(C)Oc2ccc3ccccc3c2)n1 [QY-3-28]	> 10	5.55	4080	878
CC(C)(Oc1ccc(Cl)cc1)C(=O)N1CCCC1c1ccccc1 (centres unmarked) [QY-3-29]	0.664	0.035	157	47
Cc1noc([C@@H]2CCCN2C(=O)C2(Oc3ccc(Cl)cc3)CC2)n1 [QY-3-35]	> 10	10.5	> 10000	160000
Cc1noc([C@@H]2CCCN2C(=O)C(C)(C)Sc2ccc(Cl)cc2)n1 [QY-3-36]	8.36	0.983	9400	2250
Cc1cccc(C2CCCN2C(=O)C(C)(C)Oc2ccc(Cl)cc2)c1 (centres unmarked) [QY-3-39]	5.28	0.712	1480	386
Cc1noc([C@@H]2CCCN2C(=O)C2(Oc3ccc(Cl)cc3)CCCC2)n1 [QY-3-46]	5.83	0.789	> 10000	2010
CCN(CC)Cc1noc([C@@H]2CCCN2C(=O)C(C)(C)Oc2ccc(Cl)cc2)n1 [QY-3-51]	> 10	59.2	> 10000	> 10000
